Measurements reported in paper PMC9596378, “Discovery and molecular basis of subtype-selective cyclophilin inhibitors” (Nature Chemical Biology, 2022).
Values joined by “and” are separate entries in the source; they are usually repeats but may differ in a detail not shown here. Equal entries are not always repeated. Where two headings read alike, the source gives them in different places. Blank lines part the entries; values can stand above or below the compound they belong to.

How the values were obtained:
Assay in all cases: Chymotrypsin coupled prolyl-isomerase assay
Format in all cases: biochemical
CypE = biological target: T1, CypE (Homo sapiens, UniProt Q9UNP9); conditions: for prolyl-isomerase activity (raw dose-response value): CypE, in s^-1; for IC50: wild-type CypE, read-out: Wild-Type Cyclophilin Prolyl Isomerase Inhibition IC50 Values, CypE
T1 construct: PPIE (UniProtKB Entry Q9UNP9: residues 131–301); host or cells: E. coli BL21(DE3)
T1 sequence (Q9UNP9 131-301): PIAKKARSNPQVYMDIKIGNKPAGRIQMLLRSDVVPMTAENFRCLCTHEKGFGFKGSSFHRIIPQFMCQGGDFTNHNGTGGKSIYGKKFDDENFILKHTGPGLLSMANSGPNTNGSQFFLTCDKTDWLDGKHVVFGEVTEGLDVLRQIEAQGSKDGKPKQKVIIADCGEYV
Description: (§1) Adapting a previously described protocol, with an Agilent Bravo Velocity 11 with a 384ST head, 90 µL assay buffer (25 mM HEPES pH 7.3, 100 mM NaCl, 0.01% Triton X-100) containing 5.28 nM cyclophilin was added into a flat, clear-bottom, black 384-well plate pre-chilled in a Corning CoolBox at 2–3 °C. Five microliters of compound pre-dissolved in 5% DMSO/assay buffer was then added to appropriate wells and incubated at 2–3 °C for 5 min. Five microliters of 0.5 mM α-chymotrypsin from bovine pancreas (Type II, lyophilized powder, Millipore-Sigma) in 20% 1 mM HCl/Assay Buffer was then added to each well and incubated at 2–3 °C for 5 min. The plate was then quickly transferred to a FLIPR Tetra High-Throughput Cellular Screening System (Molecular Devices). Using the internal liquid handling system of the FLIPR, 1 µL 0.5 mM Suc-AAPF-AMC (Chymotrypsin Substrate II, Millipore-Sigma) dissolved in 0.55 M LiCl/2,2,2-trifluoroethanol was added to each well, which was then mixed for 5 s, followed by immediate fluorescence measurements every 1 s for 330 s using a 360–380 nm excitation LED module and a 400–460 nm emission filter. Final concentrations of the plate include 5 nM cyclophilin, 0.25% DMSO, 25 µM α-chymotrypsin, 5 µM Suc-AAPF-AMC. Raw fluorescence data was analyzed by non-linear regression analysis with Prism v.9 by fitting one-phase association curves to each well. […] Rate constants calculated for each well (s^−1) were then normalized to substrate only (no prolyl-isomerase) and enzyme + substrate only controls. IC50 values were calculated as the value at which 50% inhibition was achieved on the non-linear regression fitted curve of each compound.

CypH = biological target: T2, CypH (Homo sapiens, UniProt O43447); conditions: for prolyl-isomerase activity (raw dose-response value): CypH
T2 construct: PPIH (UniProtKB Entry O43447: residues 1–177); His6 with TEV site (2BT vector leader) (N); made in house; host or cells: E. coli BL21(DE3)
T2 sequence (O43447 whole entry, the tested form may be a part): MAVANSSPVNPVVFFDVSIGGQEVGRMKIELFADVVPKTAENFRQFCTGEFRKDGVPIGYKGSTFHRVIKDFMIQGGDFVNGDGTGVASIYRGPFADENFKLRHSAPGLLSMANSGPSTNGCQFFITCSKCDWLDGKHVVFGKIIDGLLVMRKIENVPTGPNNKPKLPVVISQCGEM
Description: as §1

CypC = biological target: T3, CypC (Homo sapiens, UniProt P45877); conditions: for prolyl-isomerase activity (raw dose-response value): CypC, in s^-1
T3 construct: PPIC (UniProtKB Entry P45877: residues 24–212); host or cells: E. coli BL21(DE3)
T3 sequence (P45877 24-212): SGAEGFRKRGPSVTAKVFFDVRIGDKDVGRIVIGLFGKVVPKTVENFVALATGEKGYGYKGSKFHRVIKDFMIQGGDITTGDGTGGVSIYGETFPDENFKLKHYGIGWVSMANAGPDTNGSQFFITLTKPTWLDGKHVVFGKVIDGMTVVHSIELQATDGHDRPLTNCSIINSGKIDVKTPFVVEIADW
Description: as §1

CypG = biological target: T4, CypG (Homo sapiens, UniProt Q13427); conditions: for prolyl-isomerase activity (raw dose-response value): CypG, in s^-1
T4 construct: PPIG (UniProtKB Entry Q13427: residues 1–179); His6 with thrombin site (pET28a LIC leader) (N); host or cells: E. coli BL21(DE3)
T4 sequence (Q13427 1-179): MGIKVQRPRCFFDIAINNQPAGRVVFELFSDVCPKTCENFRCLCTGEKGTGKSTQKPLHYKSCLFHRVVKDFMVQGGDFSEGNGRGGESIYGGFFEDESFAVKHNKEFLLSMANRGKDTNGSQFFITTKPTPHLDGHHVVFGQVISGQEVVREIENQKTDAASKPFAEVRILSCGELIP
Description: as §1

CypA = biological target: T5, CypA (Homo sapiens, UniProt P62937); conditions: for prolyl-isomerase activity (raw dose-response value): CypA, in s^-1; for IC50: wild-type CypA, read-out: Wild-Type Cyclophilin Prolyl Isomerase Inhibition IC50 Values, CypA
T5 construct: PPIA (UniProtKB Entry P62937: residues 1–165); made in house; host or cells: E. coli BL21(DE3)
T5 sequence (P62937 whole entry, the tested form may be a part): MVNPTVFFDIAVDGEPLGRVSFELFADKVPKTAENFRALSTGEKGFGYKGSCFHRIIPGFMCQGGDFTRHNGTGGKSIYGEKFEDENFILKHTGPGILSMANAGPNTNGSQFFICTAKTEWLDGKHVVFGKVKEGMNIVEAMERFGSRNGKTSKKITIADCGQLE
Description: as §1

[1] = prolyl-isomerase inhibition, 5 nM cyclophilin, read-out: IC50 CypH
[2] = wild-type CypH, read-out: Wild-Type Cyclophilin Prolyl Isomerase Inhibition IC50 Values, CypH
[3] = wild-type CypC, read-out: Wild-Type Cyclophilin Prolyl Isomerase Inhibition IC50 Values, CypC
[4] = wild-type CypG, read-out: Wild-Type Cyclophilin Prolyl Isomerase Inhibition IC50 Values, CypG

SMILES: NCCOCCNC(=O)[C@@H]1CCNC(=O)/C=C/C(=O)N2CCC[C@](Cc3ccccc3)(C2)C(=O)N[C@@H](Cc2ccc(-c3ccccc3)cc2)C(=O)NCc2ccccc2CC(=O)N1 [Compound B2]
prolyl-isomerase activity (raw dose-response value) (CypE; dose 0.00976562 µM): 0.1022 and 0.09371 and 0.09482
prolyl-isomerase activity (raw dose-response value) (CypE; dose 0.0195312 µM): 0.1041 and 0.09004 and 0.09109
prolyl-isomerase activity (raw dose-response value) (CypE; dose 0.0390625 µM): 0.08953 and 0.08464 and 0.08549
prolyl-isomerase activity (raw dose-response value) (CypE; dose 0.078125 µM): 0.08163 and 0.08105 and 0.08006
prolyl-isomerase activity (raw dose-response value) (CypE; dose 0.15625 µM): 0.07541 and 0.07108 and 0.06602
prolyl-isomerase activity (raw dose-response value) (CypE; dose 0.3125 µM): 0.0578 and 0.05386 and 0.0523
prolyl-isomerase activity (raw dose-response value) (CypE; dose 0.625 µM): 0.04345 and 0.04205 and 0.03853
prolyl-isomerase activity (raw dose-response value) (CypE; dose 1.25 µM): 0.03208 and 0.02851 and 0.02629
prolyl-isomerase activity (raw dose-response value) (CypE; dose 2.5 µM): 0.02324 and 0.0218 and 0.01925
prolyl-isomerase activity (raw dose-response value) (CypE; dose 5 µM): 0.01397 and 0.01461 and 0.01313
prolyl-isomerase activity (raw dose-response value) (CypE; dose 10 µM): 0.008566 and 0.009565 and 0.009677
IC50 (CypE): 0.3 µM
prolyl-isomerase activity (raw dose-response value) (CypH; dose 0.0228624 µM): 0.05989 and 0.06269 and 0.07687
prolyl-isomerase activity (raw dose-response value) (CypH; dose 0.0685871 µM): 0.06674 and 0.06641 and 0.06471
prolyl-isomerase activity (raw dose-response value) (CypH; dose 0.205761 µM): 0.06507 and 0.06674 and 0.06594
prolyl-isomerase activity (raw dose-response value) (CypH; dose 0.617284 µM): 0.06577 and 0.07132 and 0.06657
prolyl-isomerase activity (raw dose-response value) (CypH; dose 1.85185 µM): 0.06049 and 0.06065 and 0.0705
prolyl-isomerase activity (raw dose-response value) (CypH; dose 5.55556 µM): 0.06127 and 0.06318 and 0.06895
prolyl-isomerase activity (raw dose-response value) (CypH; dose 16.6667 µM): 0.05909 and 0.0562 and 0.05955
prolyl-isomerase activity (raw dose-response value) (CypH; dose 50 µM): 0.04477 and 0.04513 and 0.04995
IC50 (CypH; [1]): ~100 µM
IC50 (CypH; [2]): 100 µM
prolyl-isomerase activity (raw dose-response value) (CypC; dose 0.00976562 µM): 0.05723 and 0.05806 and 0.05564
prolyl-isomerase activity (raw dose-response value) (CypC; dose 0.0195312 µM): 0.05812 and 0.0569 and 0.05659
prolyl-isomerase activity (raw dose-response value) (CypC; dose 0.0390625 µM): 0.05511 and 0.05318 and 0.05171
prolyl-isomerase activity (raw dose-response value) (CypC; dose 0.078125 µM): 0.04827 and 0.04606 and 0.04304
prolyl-isomerase activity (raw dose-response value) (CypC; dose 0.15625 µM): 0.04287 and 0.04429 and 0.04035
prolyl-isomerase activity (raw dose-response value) (CypC; dose 0.3125 µM): 0.03472 and 0.03475 and 0.034
prolyl-isomerase activity (raw dose-response value) (CypC; dose 0.625 µM): 0.02805 and 0.0282 and 0.0272
prolyl-isomerase activity (raw dose-response value) (CypC; dose 1.25 µM): 0.02258 and 0.02214 and 0.02094
prolyl-isomerase activity (raw dose-response value) (CypC; dose 2.5 µM): 0.01704 and 0.018 and 0.01642
prolyl-isomerase activity (raw dose-response value) (CypC; dose 5 µM): 0.01304 and 0.01485 and 0.01185
prolyl-isomerase activity (raw dose-response value) (CypC; dose 10 µM): 0.009494 and 0.009626 and 0.009002
IC50 (CypC; [3]): 0.38 µM
prolyl-isomerase activity (raw dose-response value) (CypG; dose 6.25 µM): 0.07439 and 0.0801 and 0.0712
prolyl-isomerase activity (raw dose-response value) (CypG; dose 12.5 µM): 0.06556 and 0.07016 and 0.06297
prolyl-isomerase activity (raw dose-response value) (CypG; dose 25 µM): 0.0539 and 0.06023 and 0.05271
prolyl-isomerase activity (raw dose-response value) (CypG; dose 50 µM): 0.04026 and 0.03816 and 0.04547
prolyl-isomerase activity (raw dose-response value) (CypG; dose 100 µM): 0.02765 and 0.03143
IC50 (CypG; [4]): 37 µM
prolyl-isomerase activity (raw dose-response value) (CypA; dose 0.00457247 µM): 0.09251 and 0.1054 and 0.1209
prolyl-isomerase activity (raw dose-response value) (CypA; dose 0.0137174 µM): 0.07185 and 0.09383 and 0.08908
prolyl-isomerase activity (raw dose-response value) (CypA; dose 0.0411523 µM): 0.0832 and 0.08759 and 0.09561
prolyl-isomerase activity (raw dose-response value) (CypA; dose 0.123457 µM): 0.08468 and 0.0712 and 0.08817
prolyl-isomerase activity (raw dose-response value) (CypA; dose 0.37037 µM): 0.0566 and 0.04501 and 0.06387
prolyl-isomerase activity (raw dose-response value) (CypA; dose 1.11111 µM): 0.03625 and 0.03272 and 0.04381
prolyl-isomerase activity (raw dose-response value) (CypA; dose 3.33333 µM): 0.02153 and 0.02404 and 0.02804
prolyl-isomerase activity (raw dose-response value) (CypA; dose 10 µM): 0.01608 and 0.01935 and 0.02238
IC50 (CypA): 0.24 µM

IC50 (CypE): 1 µM
IC50 (CypH; [1]): ~10 µM
IC50 (CypH; [2]): 10 µM
IC50 (CypC; prolyl-isomerase inhibition, 5 nM cyclophilin, read-out: IC50 CypC): ~5 µM
IC50 (CypC; [3]): 5 µM
IC50 (CypG; prolyl-isomerase inhibition, 5 nM cyclophilin, read-out: IC50 CypG): ~10 µM
IC50 (CypG; [4]): 10 µM
IC50 (CypA): 0.19 µM
SMILES: C[N+]1=C(C=CC=CC=C2N(CCCCCC(=O)NCCNC(=O)C3CCNC(=O)C=CC(=O)N4CCCC(Cc5ccccc5)(C4)C(=O)NC(Cc4ccc(-c5ccc(CC(C(=O)O)C(=O)O)cc5)cc4)C(=O)NCc4ccccc4CC(=O)N3)c3ccccc3C2(C)C)C(C)(C)c2ccccc21 (centres unmarked) [Compound B52-Cy5]

IC50 (CypE): 1.1 µM
IC50 (CypH; [2]): > 2 µM
IC50 (CypC; [3]): > 2 µM
IC50 (CypG; [4]): > 2 µM
IC50 (CypA): 0.3 µM
SMILES: C[N+]1=C(C=CC=CC=C2N(CCCCCC(=O)NCCNC(=O)C3CCNC(=O)C=CC(=O)N4CCCC(Cc5ccccc5)(C4)C(=O)NC(Cc4ccc(-c5ccc(C(CC(=O)O)CC(=O)O)cc5)cc4)C(=O)NCc4ccccc4CC(=O)N3)c3ccccc3C2(C)C)C(C)(C)c2ccccc21 (centres unmarked) [Compound B53-Cy5]
